Experimental data as given in article PMC4312629, “Pharmacokinetics of Etravirine Combined with Atazanavir/Ritonavir and a Nucleoside Reverse Transcriptase Inhibitor in Antiretroviral Treatment-Experienced, HIV-1-Infected Patients” (AIDS Research and Treatment, 2015).
Like-named read-outs stand apart in the source and are kept apart here.

Columns and labels:
[1] = TEACH: steady-state plasma pharmacokinetics of atazanavir and etravirine (LC-MS/MS, noncompartmental analysis); type: in vivo, HIV-1-infected patients
Method: Blood samples for analyses of atazanavir and ritonavir plasma concentrations were collected over 24 hours (before dose and 1, 2, 3, 4, 6, 9, 12, and 24 hours after dose) on the last day of the two-week pretreatment period and after Week 2 of the treatment period. Blood samples for evaluation of etravirine plasma concentrations were collected after Week 2. Atazanavir, ritonavir, and etravirine were assayed using validated liquid chromatography-mass spectrometry/mass spectrometry, with a lower limit of quantification of 250 ng/mL, 5.00 ng/mL, and 2.00 ng/mL, respectively.
Pharmacokinetic parameters were obtained using noncompartmental analysis (WinNonlin Professional version 4.1, Pharsight, Mountain View, CA, USA) and included C min, maximum plasma concentration (C max), and AUC12 h for etravirine and AUC24 h for atazanavir and ritonavir.
The least square means (LSM) of C min, C max, and AUC24 for atazanavir and ritonavir were estimated with a linear mixed-effects model, including treatment as fixed effect and subject as a random effect (SAS version 9.3, SAS Institute, Cary, NC, USA). A 90% confidence interval (CI) was constructed around the difference between the LSM of test and reference. The LSM differences and 90% CIs were retransformed to the original scale. No effect (prespecified) was declared if the 90% CIs of the LSM ratio were within the limits of 80.00–125.00%. The pharmacokinetics of etravirine was compared with historic data from DUET [21].

HIV-1 = settings: for median etravirine FC (range): virologic failures (n = 12)
Description: The main inclusion criteria were HIV-1-infected adults who had previously received ≥1 antiretroviral regimen but failed ≤1 PI-based regimen and were currently on a stable but failing antiretroviral regimen (viral load [VL] > 500 copies/mL at screening) (Cobas Amplicor HIV-1 VL assay, Roche Molecular Systems, Inc., Branchburg, NJ, USA; assay performed by Covance Central Laboratory Services). Patients were required to be sensitive to atazanavir, etravirine, and the selected NRTIs (with the exception of emtricitabine or lamivudine) based on resistance testing at screening using the PhenoSense GT assay (Monogram Biosciences, South San Francisco, CA, USA). […] The clinical cut-offs used for etravirine and boosted atazanavir were 2.9–10.0 and 5.2, respectively.
During the treatment session, plasma VL was determined at baseline, Weeks 2 and 4, and monthly until Week 48. Virologic failures were classified as patients who were still in the study at Week 12 and (i) who never achieved two consecutive VL values < 50 copies/mL (nonresponders) or (ii) first achieved two consecutive VL values < 50 copies/mL followed by two consecutive VL values > 50 copies/mL or discontinued for any reason with VL > 50 copies/mL (rebounders). Changes in viral phenotype and genotype in virologic failures were determined using the PhenoSense GT assay.

[2] = TEACH pharmacokinetic substudy: addition of TDF for seven days to atazanavir/ritonavir and etravirine; settings: adding TDF to ATV/r and etravirine, both ATV/r dose groups combined (7 patients), compared with Day −1
Method: The trial consisted of a ≤4-week screening period, a pretreatment period of two weeks (atazanavir/ritonavir 300/100 mg qd and two NRTIs), and a 48-week treatment period. Patients were randomized 1 : 1, by a computer-generated interactive web response system, to receive either atazanavir/ritonavir 300/100 mg qd or 400/100 mg qd (Figure 1). […] Atazanavir/ritonavir 400/100 mg qd was given to the other group to offset the potential reduction in atazanavir exposure, while at the same time investigating if the higher dose of atazanavir might further affect etravirine exposure. At baseline, in both groups, one of the two NRTIs was switched to etravirine 200 mg bid. NRTIs were selected by the investigators based on resistance testing; however, tenofovir disoproxil fumarate (TDF) was not permitted. Patients who were intolerant to their NRTI could switch to another sensitive NRTI, excluding TDF. Tenofovir decreases both atazanavir and etravirine exposure.
Seven patients participated in the pharmacokinetic substudy, 3 patients randomized to atazanavir/ritonavir 300/100 mg qd and 4 patients randomized to atazanavir/ritonavir 400/100 mg qd. Because of the small sample size, results of the two groups were combined.

[3] = parameters: method as in PMID 20881958; settings: Pooled DUET: ETR 200 mg bid + DRV/r 600/100 mg bid, Week 4 (reference, n = 25), cited from earlier work
[4] = healthy volunteers; etravirine 800 mg bid (formulation TF035) and ATV/r 300/100 mg qd; cited from earlier work
[5] = Test 1 (with ATV/r 300/100 mg qd, Week 2) versus pooled DUET reference (ETR + DRV/r, Week 4)
[6] = Test 2 (with ATV/r 400/100 mg qd, Week 2) versus pooled DUET reference (ETR + DRV/r, Week 4)
[7] = with ATV/r 300/100 mg qd, compared with historic control data (DUET)
[8] = with ATV/r 400/100 mg qd, compared with historic data (DUET)

For `COC(=O)N[C@H](C(=O)N[C@@H](Cc1ccccc1)[C@@H](O)CN(Cc1ccc(-c2ccccn2)cc1)NC(=O)[C@@H](NC(=O)OC)C(C)(C)C)C(C)(C)C` [atazanavir], the Tmax ([1]; human, in vivo, Test 1: ATV/r 300/100 mg qd + one NRTI + ETR 200 mg bid, Week 2, median (range), read-out: atazanavir t max) was 3 h and the “change in atazanavir FC” value (HIV-1; virologic failures, baseline to endpoint) was “no increase”.

With `Cc1cc(C#N)cc(C)c1Oc1nc(Nc2ccc(C#N)cc2)nc(N)c1Br` [etravirine] the “etravirine AUC0–12 h LSM ratio (90% CI) of test versus reference” value [1, 5] was 1.24 (0.88–1.76), the “etravirine C max LSM ratio (90% CI) of test versus reference” value [1, 5] was 1.06 (0.78–1.46) and the “etravirine C min LSM ratio (90% CI) of test versus reference” value [1, 5] was 1.07 (0.60–1.90). The “etravirine AUC0–12 h LSM ratio (90% CI) of test versus reference” value [1, 6] was 0.84 (0.60–1.18), the “etravirine C max LSM ratio (90% CI) of test versus reference” value [1, 6] was 0.87 (0.65–1.18) and the “etravirine C min LSM ratio (90% CI) of test versus reference” value [1, 6] was 0.83 (0.54–1.29). For the same molecule, the “increase in etravirine AUC12 h” value [1, 7] was 24%, the “increase in etravirine C max” value [1, 7] was 6% and the “increase in etravirine C min” value [1, 7] was 7%. For the same molecule, the “decrease in etravirine AUC12 h” value [1, 8] was 16%, the “decrease in etravirine C max” value [1, 8] was 13% and the “decrease in etravirine C min” value [1, 8] was 17%. For the same molecule, the “decrease in etravirine AUC12 h” value [2] was 15%, the “decrease in etravirine C max” value [2] was 19% and the “etravirine AUC12 h LSM ratio [90% CIs]” value [2] was 0.85 [0.79–0.92]. For the same molecule, the “etravirine C max LSM ratio [90% CIs]” value [2] was 0.81 [0.72–0.91], the “median etravirine FC (range)” value (HIV-1; at baseline) was 0.73 (0.4–1.7) and the “median etravirine FC (range)” value (HIV-1; at endpoint) was 2.99 (0.6–40.0). The “etravirine AUC0–12 h” value ([3]; mean ± SD) was 7964 ± 11180 ng·h/mL, the “etravirine C 0 h” value ([3]; mean ± SD) was 545.0 ± 818.6 ng/mL and the “etravirine C max” value ([3]; mean ± SD) was 879.6 ± 1030 ng/mL. The “etravirine C min” value ([3]; mean ± SD) was 452.6 ± 806.0 ng/mL, the etravirine t max ([3]; median (range)) was 3.95 (0.08–6.08) h and the “increase in etravirine AUC24 h” value [4] was 1.3 fold. The “increase in etravirine C min” value [4] was 1.3 fold.
